Results as given in patent US9498483B2, “2,3,5-trisubstituted thiophene compounds and uses thereof” (priority 2010, dated 2016).

Key:
[1] = test system: HCV replicon I389luc-ubi-neo/NS3-3′/ET in ET (Huh-lucubineo-ET) cells; test: Replicon assay (Biological Example 2), luciferase readout; format: cell-based; settings: Hepatitis C virus
In short: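 EC50 values come from Hill fits of % inhibition of replicon-driven firefly luciferase, relative to no-compound wells. Compounds were serially diluted (10 points, 3-fold, 0.1 nM–50 μM final, 0.5% DMSO) onto ET replicon cells and read after 48 h.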

[2] = target: T1, HCV polymerase (Hepatitis C virus genotype 1b, UniProt Q9WMX2); test: Polymerase assay of Biological Example 1 (IC50 values of Table 3); format: biochemical; settings: IC50 values of Table 3, polymerase assay of Biological Example 1; read-out: NS5B-enzyme3
T1 construct: (His)6 (C); made in house; host or cells: XL-1 cells (E. coli, by own knowledge)

[3] = ET cells, luciferase activity 48 hours after compound

Compound	IC50 ([1]; between 100 nM and 5.0 uM) [nM]	IC50 [2] [nM]	IC50 [1, 3] [nM]
O=C(O)c1sc(-c2ccccc2)cc1N1C(=O)CN(Cc2ccccc2)C[C@H]1C1CCCCC1 [Compound 17, 3-((R)-4-Benzyl-2-cyclohexyl-6-oxo-piperazin-1-yl)-5-phenyl-thiophene-2-carboxylic acid]	100 to 5000	24	
CC(C)(C)C#Cc1cc(N2C(=O)[C@@](C)(CCO)OC[C@H]2C2CCCCC2)c(C(=O)O)s1 [Compound 323, 3-[(2R,5R)-5-Cyclohexyl-2-(2-hydroxy-ethyl)-2-methyl-3-oxo-morpholin-4-yl]-5-(3,3-dimethyl-but-1-ynyl)-thiophene-2-carboxylic acid]		3	≤ 100
O=C(O)c1sc(-c2ccccc2)cc1N1C(=O)CN(S(=O)(=O)C2CCCCC2)CC1C1CCCCC1 (stereo not shown) [Compound 46, 3-(4-Cyclohexanesulfonyl-2-cyclohexyl-6-oxo-piperazin-1-yl)-5-phenyl-thiophene-2-carboxylic acid]	100 to 5000	63	
C[C@@H](O)C[C@H]1OC[C@@H](C2CCCCC2)N(c2cc(C#CC(C)(C)C)sc2C(=O)O)C1=O [Compound 336, 3-[(2R,5R)-5-Cyclohexyl-2-((R)-2-hydroxy-propyl)-3-oxo-morpholin-4-yl]-5-(3,3-dimethyl-but-1-ynyl)-thiophene-2-carboxylic acid]		3	≤ 100
CCN1CCN(c2ccc(S(=O)(=O)N3CC(=O)N(c4cc(-c5ccccc5)sc4C(=O)O)[C@H](C4CCCCC4)C3)cn2)CC1 [Compound 148, 3-{(R)-2-Cyclohexyl-4-[6-(4-ethyl-piperazin-1-yl)-pyridine-3-sulfonyl]-6-oxo-piperazin-1-yl}-5-phenyl-thiophene-2-carboxylic acid]		2	≤ 100
O=C(O)c1sc(-c2ccccc2)cc1N1C(=O)CN(S(=O)(=O)c2cccc(Cl)c2Cl)CC1C1CCCCC1 (stereo not shown) [Compound 111, 3-[2-Cyclohexyl-4-(2,3-dichloro-benzenesulfonyl)-6-oxo-piperazin-1-yl]-5-phenyl-thiophene-2-carboxylic acid]		243	≥ 5000
Cc1ccc(-c2cc(N3C(=O)CN(S(=O)(=O)c4ccc(C(C)(C)C)nc4)C[C@H]3C3CCCCC3)c(C(=O)O)s2)cc1 [Compound 303, 3-[(R)-4-(6-tert-Butyl-pyridine-3-sulfonyl)-2-cyclohexyl-6-oxo-piperazin-1-yl]-5-p-tolyl-thiophene-2-carboxylic acid]		4	≤ 100
CC1CCN(S(=O)(=O)N2CC(=O)N(c3cc(-c4ccccc4)sc3C(=O)O)C(C3CCCCC3)C2)CC1 (stereo not shown) [Compound 36, 3-[2-Cyclohexyl-4-(4-methyl-piperidine-1-sulfonyl)-6-oxo-piperazin-1-yl]-5-phenyl-thiophene-2-carboxylic acid]	100 to 5000	58	
Cn1ccc2c(S(=O)(=O)N3CC(=O)N(c4cc(-c5ccccc5)sc4C(=O)O)C(C4CCCCC4)C3)cccc21 (stereo not shown) [Compound 64, 3-[2-Cyclohexyl-4-(1-methyl-1H-indole-4-sulfonyl)-6-oxo-piperazin-1-yl]-5-phenyl-thiophene-2-carboxylic acid]	100 to 5000	31	
O=C(O)c1sc(-c2ccccc2)cc1N1C(=O)CN(S(=O)(=O)c2cnc(N3CCCC3)c(Cl)c2)C[C@H]1C1CCCCC1 [Compound 169]		3	≤ 100
CC(C)(C)C#Cc1cc(N2C(=O)[C@H](CCCCO)OC[C@H]2C2CCCCC2)c(C(=O)O)s1 [Compound 338, 3-[(2S,5R)-5-Cyclohexyl-2-(4-hydroxy-butyl)-3-oxo-morpholin-4-yl]-5-(3,3-dimethyl-but-1-ynyl)-thiophene-2-carboxylic acid]	100 to 5000	31	
O=C1CC(=O)N(c2cc(-c3ccccc3)sc2C(=O)O)C(C2CCCCC2)C1 (stereo not shown) [Compound 9, 3-(2-Cyclohexyl-4,6-dioxo-piperidin-1-yl)-5-phenyl-thiophene-2-carboxylic acid]		80	≥ 5000
CC(C)(C)C#Cc1cc(N2C(=O)CNCC2C2CCCCC2)c(C(=O)O)s1 (stereo not shown) [Compound 175, 3-(2-Cyclohexyl-6-oxo-piperazin-1-yl)-5-(3,3-dimethyl-but-1-ynyl)-thiophene-2-carboxylic acid]		> 10000	≥ 5000
Cc1nccc(-c2cccc(S(=O)(=O)N3CC(=O)N(c4cc(-c5ccccc5)sc4C(=O)O)C(C4CCCCC4)C3)c2)n1 (stereo not shown) [Compound 63, 3-{2-Cyclohexyl-4-[3-(2-methyl-pyrimidin-4-yl)-benzenesulfonyl]-6-oxo-piperazin-1-yl}-5-phenyl-thiophene-2-carboxylic acid]	100 to 5000	42	
